Values of other authors in US20080305186A1, “Method and Composition for the Treatment of Cardiac Hypertrophy” (BOARD OF REGENTS, THE UNIVERSITY OF TEXAS SYSTEM, priority 2007, published 2008).

How the values were obtained:
Histone Deacetylase = conditions: cited from earlier work
[1] = tested on: isoproterenol-, angiotensin II- and aortic banding induced cardiac hypertrophy; conditions: cited from earlier work

For `CCCC(CCC)C(=O)O` [valproic acid], the “inhibition of Histone Deacetylase (HDAC)” value (Histone Deacetylase) is given as “inhibit HDAC” and the “attenuation of cardiac hypertrophy” value [1] is given as “attenuate”.
